{"source": "paper PMC12394658", "about": "“Discovery of Zharp1-163 as a dual inhibitor of ferroptosis and necroptosis for the treatment of inflammatory disorders and kidney injury” (Cell Death Discovery, 2025)", "assay_in_all_cases": "biochemical", "design_in_all_cases": "Kinase selectivity panel of 81 human kinases, ADP-Glo or HTRF, per cent inhibition at 1 uM", "key": {"AurB": {"biological_target": "T1, AurB (Homo sapiens, UniProt Q96GD4)", "T1 construct": "gene AURKB", "outline": "(§1)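 Kinase-panel selectivity profiling of 81 kinases with compound at 1000 nM.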"}, "PKCα": {"biological_target": "T2, PKCα (Homo sapiens, UniProt P17252)", "T2 construct": "gene PRKCA", "outline": "as §1"}, "HGK": {"biological_target": "T3, HGK (Homo sapiens, UniProt O95819)", "T3 construct": "gene MAP4K4", "T3 sequence (O95819 whole entry)": "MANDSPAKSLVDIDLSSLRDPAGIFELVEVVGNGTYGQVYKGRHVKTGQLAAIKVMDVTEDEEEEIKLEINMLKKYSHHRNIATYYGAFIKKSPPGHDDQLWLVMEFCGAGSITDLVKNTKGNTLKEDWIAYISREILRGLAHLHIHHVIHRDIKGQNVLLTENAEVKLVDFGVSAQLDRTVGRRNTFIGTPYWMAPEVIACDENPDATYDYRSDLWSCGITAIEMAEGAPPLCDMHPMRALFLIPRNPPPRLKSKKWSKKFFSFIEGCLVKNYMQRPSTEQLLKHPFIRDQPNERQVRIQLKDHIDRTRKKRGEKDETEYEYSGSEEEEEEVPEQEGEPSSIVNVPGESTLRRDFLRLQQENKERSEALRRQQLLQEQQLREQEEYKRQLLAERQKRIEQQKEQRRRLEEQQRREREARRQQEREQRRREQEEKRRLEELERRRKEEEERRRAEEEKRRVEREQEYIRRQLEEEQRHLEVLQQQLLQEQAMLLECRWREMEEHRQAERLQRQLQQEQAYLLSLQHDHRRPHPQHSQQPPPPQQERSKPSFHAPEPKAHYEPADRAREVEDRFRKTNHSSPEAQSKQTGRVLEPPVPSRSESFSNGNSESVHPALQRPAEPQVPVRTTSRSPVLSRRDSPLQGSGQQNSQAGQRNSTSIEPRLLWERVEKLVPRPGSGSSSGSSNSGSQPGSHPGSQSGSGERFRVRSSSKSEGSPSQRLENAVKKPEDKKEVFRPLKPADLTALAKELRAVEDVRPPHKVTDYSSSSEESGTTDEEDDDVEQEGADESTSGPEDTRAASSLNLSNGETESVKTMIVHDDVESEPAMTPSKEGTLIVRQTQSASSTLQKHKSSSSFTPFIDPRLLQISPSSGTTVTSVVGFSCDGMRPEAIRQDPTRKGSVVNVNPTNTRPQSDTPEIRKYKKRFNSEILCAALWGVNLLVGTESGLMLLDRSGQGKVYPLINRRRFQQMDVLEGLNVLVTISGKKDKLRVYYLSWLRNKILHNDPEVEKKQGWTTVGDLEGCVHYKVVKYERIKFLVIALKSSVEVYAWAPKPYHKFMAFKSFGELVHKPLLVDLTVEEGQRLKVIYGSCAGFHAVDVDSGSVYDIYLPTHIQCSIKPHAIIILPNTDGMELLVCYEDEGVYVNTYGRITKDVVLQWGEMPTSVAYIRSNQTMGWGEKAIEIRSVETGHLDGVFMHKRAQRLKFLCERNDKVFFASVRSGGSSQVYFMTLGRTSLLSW", "outline": "as §1"}, "CK1α": {"biological_target": "T4, CK1α (Homo sapiens, UniProt P48729)", "T4 construct": "gene CSNK1A1", "T4 sequence (P48729 whole entry)": "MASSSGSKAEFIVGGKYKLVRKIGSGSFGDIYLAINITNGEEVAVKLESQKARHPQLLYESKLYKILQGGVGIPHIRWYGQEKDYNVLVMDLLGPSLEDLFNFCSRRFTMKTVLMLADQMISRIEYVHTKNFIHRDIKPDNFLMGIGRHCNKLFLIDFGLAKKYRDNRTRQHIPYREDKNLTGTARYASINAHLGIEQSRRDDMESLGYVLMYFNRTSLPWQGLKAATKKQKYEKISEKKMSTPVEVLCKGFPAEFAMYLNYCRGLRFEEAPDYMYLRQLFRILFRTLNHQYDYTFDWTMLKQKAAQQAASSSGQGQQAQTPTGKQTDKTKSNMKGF", "outline": "as §1"}, "PLK2": {"biological_target": "PLK2 (Homo sapiens, UniProt Q9NYY3)", "outline": "as §1"}, "PLK1": {"biological_target": "PLK1 (Homo sapiens, UniProt P53350)", "sequence (P53350 whole entry)": "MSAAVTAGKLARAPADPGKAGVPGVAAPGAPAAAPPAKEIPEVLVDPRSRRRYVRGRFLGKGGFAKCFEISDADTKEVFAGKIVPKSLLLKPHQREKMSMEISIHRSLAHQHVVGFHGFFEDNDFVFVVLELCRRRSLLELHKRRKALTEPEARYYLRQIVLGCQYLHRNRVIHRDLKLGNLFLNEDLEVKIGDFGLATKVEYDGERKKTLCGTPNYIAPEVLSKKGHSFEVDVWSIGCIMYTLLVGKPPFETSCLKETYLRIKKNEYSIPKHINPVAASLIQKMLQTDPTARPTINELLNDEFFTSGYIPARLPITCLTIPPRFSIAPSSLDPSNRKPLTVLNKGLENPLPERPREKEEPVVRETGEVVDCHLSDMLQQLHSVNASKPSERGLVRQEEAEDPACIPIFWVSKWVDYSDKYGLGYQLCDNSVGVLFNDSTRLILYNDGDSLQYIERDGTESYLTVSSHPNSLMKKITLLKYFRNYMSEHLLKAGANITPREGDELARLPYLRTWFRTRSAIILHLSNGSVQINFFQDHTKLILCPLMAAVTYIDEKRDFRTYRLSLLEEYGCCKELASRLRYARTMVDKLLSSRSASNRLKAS", "outline": "as §1"}, "ITK": {"biological_target": "ITK (Homo sapiens, UniProt Q08881)", "sequence (Q08881 whole entry)": "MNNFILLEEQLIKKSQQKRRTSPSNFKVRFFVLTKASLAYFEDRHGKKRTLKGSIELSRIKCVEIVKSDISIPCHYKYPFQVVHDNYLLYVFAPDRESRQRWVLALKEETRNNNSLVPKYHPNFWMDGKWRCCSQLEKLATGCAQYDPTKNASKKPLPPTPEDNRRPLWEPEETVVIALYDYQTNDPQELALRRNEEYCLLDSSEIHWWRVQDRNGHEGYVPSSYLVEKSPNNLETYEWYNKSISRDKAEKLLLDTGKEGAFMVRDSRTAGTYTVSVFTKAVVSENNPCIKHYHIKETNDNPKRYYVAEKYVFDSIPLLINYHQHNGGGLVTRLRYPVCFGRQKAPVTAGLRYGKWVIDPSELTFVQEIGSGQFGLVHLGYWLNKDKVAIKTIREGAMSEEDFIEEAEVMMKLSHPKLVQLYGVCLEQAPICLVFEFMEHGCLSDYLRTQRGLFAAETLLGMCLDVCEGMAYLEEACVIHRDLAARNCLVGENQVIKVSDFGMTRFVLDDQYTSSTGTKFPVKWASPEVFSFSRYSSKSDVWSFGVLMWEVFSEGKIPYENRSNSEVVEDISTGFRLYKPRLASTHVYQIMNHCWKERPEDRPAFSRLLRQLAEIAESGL", "outline": "as §1"}, "CaMK1α": {"biological_target": "T5, CaMK1α (Homo sapiens, UniProt Q14012)", "T5 construct": "gene CAMK1", "T5 sequence (Q14012 whole entry)": "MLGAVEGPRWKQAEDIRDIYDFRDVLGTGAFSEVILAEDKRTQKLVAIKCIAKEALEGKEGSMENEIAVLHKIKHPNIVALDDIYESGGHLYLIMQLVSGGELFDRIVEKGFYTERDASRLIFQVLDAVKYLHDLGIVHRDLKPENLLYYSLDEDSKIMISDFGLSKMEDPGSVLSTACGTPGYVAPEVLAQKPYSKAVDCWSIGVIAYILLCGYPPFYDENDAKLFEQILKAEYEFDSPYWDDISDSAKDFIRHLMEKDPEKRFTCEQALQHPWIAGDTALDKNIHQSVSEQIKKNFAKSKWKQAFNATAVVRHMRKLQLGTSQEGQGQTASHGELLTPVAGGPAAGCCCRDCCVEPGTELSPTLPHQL", "outline": "as §1"}, "LCK": {"biological_target": "LCK (Homo sapiens, UniProt P06239)", "outline": "as §1"}, "WEE1": {"biological_target": "WEE1 (Homo sapiens, UniProt P30291)", "outline": "as §1"}, "ABL1": {"biological_target": "ABL1 (Homo sapiens, UniProt P00519)", "outline": "as §1"}, "ULK2": {"biological_target": "ULK2 (Homo sapiens, UniProt Q8IYT8)", "sequence (Q8IYT8 whole entry)": "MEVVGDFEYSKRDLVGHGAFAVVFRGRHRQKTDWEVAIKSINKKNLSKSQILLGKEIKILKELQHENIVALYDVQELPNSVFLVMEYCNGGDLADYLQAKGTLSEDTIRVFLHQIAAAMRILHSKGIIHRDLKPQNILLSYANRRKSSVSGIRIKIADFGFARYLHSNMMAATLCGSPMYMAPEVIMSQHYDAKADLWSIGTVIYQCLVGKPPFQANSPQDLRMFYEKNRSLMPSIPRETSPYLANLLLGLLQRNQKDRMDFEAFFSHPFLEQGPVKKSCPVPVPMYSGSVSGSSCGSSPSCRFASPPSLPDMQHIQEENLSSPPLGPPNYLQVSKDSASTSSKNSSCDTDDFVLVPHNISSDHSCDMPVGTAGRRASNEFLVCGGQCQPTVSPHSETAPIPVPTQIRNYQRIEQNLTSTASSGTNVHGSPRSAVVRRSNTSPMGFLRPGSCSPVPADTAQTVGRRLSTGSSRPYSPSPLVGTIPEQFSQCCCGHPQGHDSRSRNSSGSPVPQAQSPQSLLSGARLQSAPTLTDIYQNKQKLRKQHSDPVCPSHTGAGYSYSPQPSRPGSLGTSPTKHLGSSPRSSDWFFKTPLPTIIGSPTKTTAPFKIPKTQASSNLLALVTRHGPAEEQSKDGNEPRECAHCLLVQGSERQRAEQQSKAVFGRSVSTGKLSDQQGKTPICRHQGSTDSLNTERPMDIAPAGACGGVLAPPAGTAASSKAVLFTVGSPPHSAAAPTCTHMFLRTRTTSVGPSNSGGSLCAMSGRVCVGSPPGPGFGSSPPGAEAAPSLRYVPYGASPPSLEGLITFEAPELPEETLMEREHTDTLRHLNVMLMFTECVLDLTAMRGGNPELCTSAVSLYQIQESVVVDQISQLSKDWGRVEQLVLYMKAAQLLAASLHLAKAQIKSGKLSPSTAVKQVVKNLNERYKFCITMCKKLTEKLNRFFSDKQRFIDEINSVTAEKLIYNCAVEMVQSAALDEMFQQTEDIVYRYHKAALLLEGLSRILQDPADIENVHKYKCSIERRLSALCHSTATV", "outline": "as §1"}}}
{"smiles": "Nc1cn2cc(-c3cnc4c(c3)N(C(=O)OC3CCCCC3)CCO4)ccc2n1", "note": "[Zharp1-163]", "values": [{"measurement": "inhibition at 1 µM", "setting": "AurB; replicate Data1", "result": 8.89, "unit": "%"}, {"measurement": "inhibition at 1 µM", "setting": "AurB; replicate Data2", "result": 13.4, "unit": "%"}, {"measurement": "inhibition at 1 µM", "setting": "PKCα; replicate Data1", "result": -5.43, "unit": "%"}, {"measurement": "inhibition at 1 µM", "setting": "PKCα; replicate Data2", "result": -7.15, "unit": "%"}, {"measurement": "inhibition at 1 µM", "setting": "HGK; replicate Data1", "result": 4.09, "unit": "%"}, {"measurement": "inhibition at 1 µM", "setting": "HGK; replicate Data2", "result": 11.5, "unit": "%"}, {"measurement": "inhibition at 1 µM", "setting": "CK1α; replicate Data1", "result": -4.65, "unit": "%"}, {"measurement": "inhibition at 1 µM", "setting": "CK1α; replicate Data2", "result": -16.6, "unit": "%"}, {"measurement": "inhibition at 1 µM", "setting": "PLK2; replicate Data1", "result": -2.91, "unit": "%"}, {"measurement": "inhibition at 1 µM", "setting": "PLK2; replicate Data2", "result": -19.7, "unit": "%"}, {"measurement": "inhibition at 1 µM", "setting": "PLK1; replicate Data1", "result": -5.06, "unit": "%"}, {"measurement": "inhibition at 1 µM", "setting": "PLK1; replicate Data2", "result": -18, "unit": "%"}, {"measurement": "inhibition at 1 µM", "setting": "ITK; replicate Data1", "result": 19.4, "unit": "%"}, {"measurement": "inhibition at 1 µM", "setting": "ITK; replicate Data2", "result": 18.5, "unit": "%"}, {"measurement": "inhibition at 1 µM", "setting": "CaMK1α; replicate Data1", "result": -18.7, "unit": "%"}, {"measurement": "inhibition at 1 µM", "setting": "CaMK1α; replicate Data2", "result": -6.35, "unit": "%"}, {"measurement": "inhibition at 1 µM", "setting": "LCK; replicate Data1", "result": -16.9, "unit": "%"}, {"measurement": "inhibition at 1 µM", "setting": "LCK; replicate Data2", "result": -10.8, "unit": "%"}, {"measurement": "inhibition at 1 µM", "setting": "WEE1; replicate Data1", "result": 9.26, "unit": "%"}, {"measurement": "inhibition at 1 µM", "setting": "WEE1; replicate Data2", "result": 4.33, "unit": "%"}, {"measurement": "inhibition at 1 µM", "setting": "ABL1; replicate Data1", "result": 6.71, "unit": "%"}, {"measurement": "inhibition at 1 µM", "setting": "ABL1; replicate Data2", "result": 9.11, "unit": "%"}, {"measurement": "inhibition at 1 µM", "setting": "ULK2; replicate Data1", "result": -5.94, "unit": "%"}, {"measurement": "inhibition at 1 µM", "setting": "ULK2; replicate Data2", "result": -8.78, "unit": "%"}]}
